Here are results for one substance from US6770292B2, “Pharmaceutical compositions for oral administration” (Capsules, priority 2000, dated 2004).

The experiment deals with blood calcium. Description: Blood calcium (calcemia) in rats after administration of calcitonin compositions. The note with it: oral, 72 IU per animal, FIG. 5. The experiment is classed as in vivo, female Wistar rats. How it is done: The study was carried out on female Wistar rats weighing 150 g, divided into groups of 4 rats. Oral administration was effected using an esophageal tube in a volume of 300 μl, corresponding to […] administered per animal.
A volume of 100 μl of an aqueous solution of calcitonin with a titer of 20 IU/ml, corresponding to a dose of 2 IU of calcitonin per animal, was administered subcutaneously to a positive control group.
A volume of 300 μl of an aqueous solution of calcitonin with a titer of 240 IU/ml, corresponding to 72 IU per animal, was administered orally to a negative control group.
The animals were fasted (water diet) 24 hours before the experiment. Blood samples were taken retro-orbitally under general anesthetic at T0 (before administration), T0+1 h, T0+2 h or T0+3 h, T0+5 h. 50 μl of blood are collected in microcapillary tubes containing heparin.
The blood calcium and pH are measured immediately after sample collection, directly in the microcapillary tube, by means of a CIBA-CORNING model 634 automatic analyzer to give the calcemia.

Regarding “calcitonin [non-encapsulated calcitonin solution]”, the decrease of calcemia entry is “not observed”.
